Reference: paper PMC5830399, “Aggregating sequences that occur in many proteins constitute weak spots of bacterial proteostasis” (Nature Communications, 2018)
Values after ≈ are worked out from the molar mass of the structure shown. Read-outs that look alike come from different tables or passages of the source. Peptide text beside a SMILES is read from it.

Tests used:
human erythrocytes = assay: In vitro hemolytic activity test; type: cell-based; conditions: 1 h 37 °C
Description: The hemolytic activities of peptides were determined by hemolysis against human erythrocytes. Pooled fresh blood was obtained from healthy volunteers (Red Cross Flanders) and erythrocytes were collected by centrifugation 1,000 × g for 5 min (anticoagulated by EDTAK). The pellet was washed three times with phosphate-buffered saline (PBS) and was diluted to a concentration of 8% in PBS. One hundred microliters of 8% red blood cells solution was mixed with 100 µL of serial dilutions of peptides in PBS buffer in 96-well plates (BD Biosciences). The reaction mixtures were incubated for 1 h at 37 °C. Thereupon, the plate was centrifuged for 10 min at 1,000 × g and 100 µL of supernatant was transferred to a sterilized 96-well plate (BD Biosciences, flat bottom). The release of hemoglobin was determined by measuring the absorbance of the supernatant at 405 nm. […] Erythrocytes in 1% Triton and maximum used concentration of vehicle were used as the control of 100 and 0% hemolysis, respectively.

E. coli K-12 BW25113 = type: cell-based, Escherichia coli
Description: (§1) If the bactericidal effect of P2 is indeed mediated by a loss of protein homeostasis, the cellular chaperone machinery would be expected to counteract or limit the effect of the peptide. […] To ensure that this effect was not due to the reduced overall viability of the dnaK deletion strain, we also tested the MIC value at 30 °C and obtained the same result (MIC = 6 μg/mL). This confirms that the direct inhibition of chaperones and proteases is not the principal mechanism of action of P2. […] The deletion strains with the strongest effect largely matched those found in the IBs by MS, including those of the cotranslationally acting chaperones TF (tig), dnaK (Hsp70 family), and its cochaperone dnaJ, as well as the small Hsps hchA (Hsp31), hslO (Hsp33), and ipbA (α-crystallin family). The disaggregase clpB and the aggregation-controlling protease lon also had strong effects.
(§2) The MICs of active peptides were determined via the Broth microdilution assay according to the EUCAST guideline, which was performed in 96-well polystyrene flat bottom microtiter plates (BD Biosciences). Briefly, a single colony was inoculated into 5 mL LB medium and grown to the end-exponential growth phase in a shaking incubator at 37 °C. Cultures were subsequently diluted to an OD600 (optical density) of 0.002 ([…]) in fresh LB medium. One hundred microliters of LB medium with different concentration of peptides ranging from 100 to 0.75 µg/mL were serially diluted to the sterile 96-well plate (at least three wells in each plate). Afterwards, 100 µL of the diluted bacteria were pipetted into 96-well plates containing different concentration of peptides. In each plate, the grown bacteria with the maximum concentration of carrier and medium were considered as positive and negative controls, respectively. Thereafter, 96-well plates were statically incubated overnight at 37 °C to allow bacterial growth. OD was measured at 590 nm for 1 s using a multipurpose ultraviolet–visible plate reader, and the absorbance of the growth bacteria was measured using a Perkin Elmer spectrophotometer (1420 Multilabel Counter Victor 3).
Knockout chaperon strains were purchased from Dharmacon E. coli Keio knockout collection, which contains a set of single-gene deletion mutants for chaperone E. coli K-12 genes. Each deleted gene has been replaced with a kanamycin (30 μg/ mL) resistance cassette.

Swiss mice = assay: In vivo toxicity test; parameters: species or system mouse; conditions: Swiss female mice, 30 mg/kg IP once a day for 18 days (Supplementary Note 8)
Description: The procedures used in the assays were approved by the local Animal Ethics Committee and conform to international standards of animal welfare (Approval P067/2015 of the Ethical Committee of KULeuven). A safe concentration of peptides of […] was used for this experiment.
Briefly, 5–6-week-old Swiss females were divided into […] (six animals per group) and administered 30 mg/kg of P2 (group A) or vehicle (physiological water pH 7.5) (group B) once a day for 18 days via IP injection. During the treatment period, the clinical, physiological, and behavioral parameters, including body weight, food and water consumption, body condition score, home cage activity, and locomotion were constantly monitored and recorded.
Three days after the last administration, animals were anesthetized and blood was collected using a standard retro-orbital puncture from each animal. Next, the mice sacrificed and underwent complete necropsy with gross examination and organ weights. The organs (heart, liver, spleen, kidney, bone marrow, brain, lung) were sampled and immersed in fixative in 4% paraformaldehyde. […] Five-micrometer-thick sections taken from these blocks (Thermo Scientific Microm HM355S microtome) were then stained with hematoxylin and eosin (Leica ST5010 Autostainer XL) and evaluated under a Leica DM 2500 light microscope by a board-certified veterinary pathologist. […]

E. coli O157 = type: cell-based, Escherichia coli; conditions: HPLC-purified peptide
Description: In order to investigate whether APR redundancy does result in proteostatic collapse, we selected resynthesized and high-performance liquid chromatography (HPLC)-purified four positive peptides from the screen, P2, P5, P14, and P105, as well as three negative peptides, P3, P4, and P11, and confirmed their MIC and minimum bactericidal concentration (MBC) values (Table 1). […] These IBs, which are also called large polar aggregates, could be stained with pentameric formyl thiophene acetic acid (pFTAA, Fig. 1j and supplementary Fig. 3), an extensively characterized amyloid-specific dye[20]–[22], which specifically binds to amyloid-like aggregates as well as disease-associated protein IBs[22]. This IB-staining pattern could be observed for all bactericidal peptides, but not for any of the other peptides, although some other pFTAA-positive structures could be discerned (Supplementary Fig. 3). We confirmed the cross-β-structure content of IB using thioflavin-T staining and correlative atomic force microscopy nanoimaging and Fourier transform infrared spectroscopy (Supplementary Note 2 and Supplementary Fig. 4).

E. coli O157:H7 = type: cell-based, Escherichia coli
Description: as §2

E. coli BL21 = type: cell-based, Escherichia coli
Description: as §1, §2
Chaperone co-expression plasmids were purchased from Takara set (catalog# 3340), which consists of five different plasmids that contain chaperone plasmids developed by HSP Research Institute Inc. Plasmids were transformed into competent E. coli BL21. The co-expression chaperone strains are chloramphenicol selective of chaperone plasmid (20 μg/mL), and chaperone inducer depending on the chaperone plasmid used. pG-KJE8 (DnaK-dnaJ-grpE araB groES-groEL) induced by L-arabinose (0.5 mg/mL), tetracycline (1–5 ng/mL), pGro7 (groES-groEL) induced by L-arabinose (0.5 mg/mL), pKJE7 (dnaK-dnaJ-grpE) induced by L-arabinose (0.5 mg/mL), pG-Tf2 (groES-groEL-tig) induced by tetracycline (1–5 ng/mL), and pTf16 (tig) induced by L-arabinose (0.5 mg/mL).

## CC(C)C[C@H](NC(=O)CNC(=O)[C@H](CCCNC(=N)N)NC(=O)[C@@H]1CCCN1C(=O)[C@H](CCCNC(=N)N)NC(=O)[C@H](CCCNC(=N)N)NC(=O)[C@@H](NC(=O)[C@H](CC(C)C)NC(=O)[C@H](C)NC(=O)[C@H](CC(C)C)NC(=O)CNC(=O)[C@H](CC(C)C)NC(=O)CNC(=O)[C@@H](N)CCCNC(=N)N)C(C)C)C(=O)NCC(=O)N[C@@H](CC(C)C)C(=O)N[C@@H](C)C(=O)N[C@@H](CC(C)C)C(=O)N[C@H](C(=O)N[C@@H](CCCNC(=N)N)C(=O)N[C@@H](CCCNC(=N)N)C(=O)O)C(C)C [P2] (H-RGLGLALVRRPRGLGLALVRR-OH)
Human erythrocytes
  LC50, concentration inducing 50% lysis of human erythrocytes: 1,100 μg/mL
E. coli K-12 BW25113; KEIO WT
  MIC: 12 µg/mL (≈ 5.22 µM)
E. coli K-12 BW25113; dnaK deletion strain, tested at 30 °C
  MIC: 6 µg/mL (≈ 2.61 µM)
E. coli K-12 BW25113; gene deletion ∆ clpA
  MIC: 12 µg/mL (≈ 5.22 µM)
E. coli K-12 BW25113; gene deletion ∆ clpB
  MIC: 12 µg/mL (≈ 5.22 µM)
E. coli K-12 BW25113; gene deletion ∆ clpP
  MIC: 12 µg/mL (≈ 5.22 µM)
E. coli K-12 BW25113; gene deletion ∆ clpS
  MIC: 12 µg/mL (≈ 5.22 µM)
E. coli K-12 BW25113; gene deletion ∆ clpX
  MIC: 12 µg/mL (≈ 5.22 µM)
E. coli K-12 BW25113; gene deletion ∆ dnaJ
  MIC: 12 µg/mL (≈ 5.22 µM)
E. coli K-12 BW25113; gene deletion ∆ dnaK
  MIC: 6 µg/mL (≈ 2.61 µM)
E. coli K-12 BW25113; gene deletion ∆ groL
  MIC: 12 µg/mL (≈ 5.22 µM)
E. coli K-12 BW25113; gene deletion ∆ hchA
  MIC: 6 µg/mL (≈ 2.61 µM)
E. coli K-12 BW25113; gene deletion ∆ hslO
  MIC: 12 µg/mL (≈ 5.22 µM)
E. coli K-12 BW25113; gene deletion ∆ htpG
  MIC: 12 µg/mL (≈ 5.22 µM)
E. coli K-12 BW25113; gene deletion ∆ ibpA
  MIC: 12 µg/mL (≈ 5.22 µM)
E. coli K-12 BW25113; gene deletion ∆ ibpB
  MIC: 12 µg/mL (≈ 5.22 µM)
E. coli K-12 BW25113; gene deletion ∆ lon
  MIC: 12 µg/mL (≈ 5.22 µM)
E. coli K-12 BW25113; gene deletion ∆ sulA
  MIC: 12 µg/mL (≈ 5.22 µM)
E. coli K-12 BW25113; gene deletion ∆ tig
  MIC: 12 µg/mL (≈ 5.22 µM)
Swiss mice
  tolerability in mice: tolerated P2 treatments well
E. coli O157
  MBC: 6 µg/mL (≈ 2.61 µM)
E. coli O157:H7; E. coli O157(:H7), HPLC-purified peptide, broth microdilution (EUCAST), LB, overnight 37 °C, OD 590 nm
  MIC: 6 µg/mL (≈ 2.61 µM)
E. coli O157:H7; E. coli O157:H7
  IC50, concentration at which bacterial growth is 50% inhibited: 1.5 µg/mL (≈ 0.652 µM)
E. coli BL21; BL21, plasmid pG-KJE8, overexpressed dnaK-dnaJ-grpE groES-groEL
  MIC: 25 µg/mL (≈ 10.9 µM)
E. coli BL21; BL21, plasmid pG-Tf2, overexpressed groES-groEL-tig
  MIC: 25 µg/mL (≈ 10.9 µM)
E. coli BL21; BL21, plasmid pGro7, overexpressed groES-groEL
  MIC: 25 µg/mL (≈ 10.9 µM)
E. coli BL21; BL21, plasmid pKJE7, overexpressed dnaK-dnaJ-grpE
  MIC: 25 µg/mL (≈ 10.9 µM)
E. coli BL21; BL21, plasmid pTf16, overexpressed tig
  MIC: 25 µg/mL (≈ 10.9 µM)
E. coli BL21; BL21 wt, no plasmid
  MIC: 25 µg/mL (≈ 10.9 µM)
